Measurements reported in patent publication US8772480B2, “Inhibitors of PI3 kinase and/or mTOR” (priority 2009, dated 2014).
Like-named read-outs stand apart in the source and are kept apart here.

What was measured:
[1] = test system: phosphorylation of Akt at Serine 473 in U87 MG cells; assay: cells; details: Homo sapiens, U-87 MG, 2 h
PI3Kα = PI3Kα (Homo sapiens (Human), UniProt P42336); details: read-out: PI3Kα AlphaScreen ® Ki
[2] = read-out: U87Cell IC50, pAkt (Ser 473), U87 MG cells, two hours with compound

PI3Kα, sequence (P42336 whole entry): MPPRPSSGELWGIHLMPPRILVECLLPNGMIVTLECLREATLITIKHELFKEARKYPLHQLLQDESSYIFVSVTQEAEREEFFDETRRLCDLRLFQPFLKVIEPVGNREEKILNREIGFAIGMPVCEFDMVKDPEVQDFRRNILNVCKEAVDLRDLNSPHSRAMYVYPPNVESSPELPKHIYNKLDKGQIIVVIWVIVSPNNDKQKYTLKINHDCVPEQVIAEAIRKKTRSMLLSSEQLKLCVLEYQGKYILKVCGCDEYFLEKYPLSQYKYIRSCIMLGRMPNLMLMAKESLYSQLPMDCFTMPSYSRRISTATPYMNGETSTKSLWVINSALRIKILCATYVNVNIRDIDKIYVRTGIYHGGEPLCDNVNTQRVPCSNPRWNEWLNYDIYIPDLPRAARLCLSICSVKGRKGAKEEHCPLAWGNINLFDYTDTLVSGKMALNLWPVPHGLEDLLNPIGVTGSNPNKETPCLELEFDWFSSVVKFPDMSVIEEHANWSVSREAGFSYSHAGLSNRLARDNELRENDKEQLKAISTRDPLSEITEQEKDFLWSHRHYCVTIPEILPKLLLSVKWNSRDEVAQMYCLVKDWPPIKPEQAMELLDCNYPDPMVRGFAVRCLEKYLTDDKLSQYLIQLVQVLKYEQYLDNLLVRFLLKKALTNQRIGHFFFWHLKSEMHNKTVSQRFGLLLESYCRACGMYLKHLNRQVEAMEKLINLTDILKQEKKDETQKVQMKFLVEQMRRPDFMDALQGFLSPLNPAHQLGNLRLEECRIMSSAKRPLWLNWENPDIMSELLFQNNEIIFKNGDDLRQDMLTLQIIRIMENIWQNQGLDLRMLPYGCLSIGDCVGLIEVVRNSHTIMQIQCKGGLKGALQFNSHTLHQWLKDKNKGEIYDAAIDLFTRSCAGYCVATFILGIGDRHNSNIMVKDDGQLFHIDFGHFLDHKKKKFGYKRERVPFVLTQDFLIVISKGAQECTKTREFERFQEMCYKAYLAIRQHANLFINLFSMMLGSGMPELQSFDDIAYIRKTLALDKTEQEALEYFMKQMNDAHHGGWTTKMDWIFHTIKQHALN
PI3Kα, sequence (P27986 whole entry partner): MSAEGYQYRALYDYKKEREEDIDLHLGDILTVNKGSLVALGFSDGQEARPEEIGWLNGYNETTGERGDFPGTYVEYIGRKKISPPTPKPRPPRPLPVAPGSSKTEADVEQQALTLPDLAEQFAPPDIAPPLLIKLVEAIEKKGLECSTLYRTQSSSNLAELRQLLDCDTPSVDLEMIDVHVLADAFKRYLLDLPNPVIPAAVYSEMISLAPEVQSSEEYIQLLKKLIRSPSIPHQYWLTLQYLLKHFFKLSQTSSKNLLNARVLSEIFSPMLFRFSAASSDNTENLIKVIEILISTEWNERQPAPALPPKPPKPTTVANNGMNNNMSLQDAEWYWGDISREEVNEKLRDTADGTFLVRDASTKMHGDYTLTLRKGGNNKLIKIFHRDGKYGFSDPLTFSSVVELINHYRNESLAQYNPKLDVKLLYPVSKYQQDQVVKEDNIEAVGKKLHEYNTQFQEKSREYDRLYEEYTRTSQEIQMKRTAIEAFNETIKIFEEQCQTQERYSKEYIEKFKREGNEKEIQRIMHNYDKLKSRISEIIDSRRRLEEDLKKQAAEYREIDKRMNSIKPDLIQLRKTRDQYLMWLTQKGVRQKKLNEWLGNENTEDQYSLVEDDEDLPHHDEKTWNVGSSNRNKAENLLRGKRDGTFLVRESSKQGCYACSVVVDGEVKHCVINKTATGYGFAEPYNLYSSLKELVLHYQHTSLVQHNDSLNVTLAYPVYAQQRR

IC50 [1, 2] [µM]	Ki (PI3Kα) [µM]	SMILES	IC50 ([1]; read-out: U87Cell IC50) [µM]
0.05	0.006	COc1ccc(Nc2ncc(CN3CCN(S(C)(=O)=O)CC3)cc2-c2cc(N)nc(C)n2)cn1 [Example 178, 6-(2-(6-Methoxypyridin-3-Ylamino)-5-((4-(Methylsulfonyl)Piperazin-1-yl)Methyl)Pyridin-3-yl)-2-Methylpyrimidin-4-Amine]	
0.083	0.1	Cc1nc(N)nc(-c2cc(CN3CCOCC3)cnc2Nc2ccc3scnc3c2)n1 [Example 129, N-(3-(4-amino-6-methyl-1,3,5-triazin-2-yl)-5-(morpholinomethyl)pyridin-2-yl)benzo[d]thiazol-5-amine]	
0.046	0.018	COc1ccc(Nc2ncc(C(N)c3ccc(S(=O)(=O)N(C)C)cc3)cc2-c2nc(C)nc(N)n2)cn1 (stereo not drawn) [Example 237, 4-(Amino(5-(4-Amino-6-Methyl-1,3,5-Triazin-2-yl)-6-(6-Methoxypyridin-3-Ylamino)Pyridin-3-yl)Methyl)-N,N-Dimethylbenzenesulfonamide]	
0.012	0.018	COc1cc(Nc2ncc(CN3CCN(S(C)(=O)=O)C[C@@H]3C)cc2-c2nc(C)nc(N)n2)cnc1Cl [Example 317, (S)-4-(2-(6-Chloro-5-Methoxypyridin-3-Ylamino)-5-((2-Methyl-4-(Methylsulfonyl)Piperazin-1-yl)Methyl)Pyridin-3-yl)-6-Methyl-1,3,5-Triazin-2-Amine]	
0.046	0.055	Cc1nc(N)nc(-c2cc(CN3CCN(S(C)(=O)=O)CC3)cnc2Nc2ccc3ncoc3c2)n1 [Example 39, N-(3-(4-Amino-6-Methyl-1,3,5-Triazin-2-yl)-5-((4-(Methylsulfonyl)Piperazin-1-yl)Methyl)Pyridin-2-yl)Benzo[D]Oxazol-6-Amine]	
0.001	0.002	COc1ncc(Nc2ncc([C@@H](C)N3CCN(S(C)(=O)=O)CC3)cc2-c2cc(N)nc(C)n2)cc1F [Example 305, 6-(2-((5-fluoro-6-methoxy-3-pyridinyl)amino)-5-((1R)-1-(4-(methylsulfonyl)-1-piperazinyl)ethyl)-3-pyridinyl)-2-methyl-4-pyrimidinamine]	
0.046	0.044	Cc1nc(N)nc(-c2cc([C@@H](C)N3CCN(S(C)(=O)=O)CC3)cnc2Nc2ccc(Cl)nc2)n1 [Example 309, (R)-4-(2-(6-chloropyridin-3-ylamino)-5-(1-(4-(methylsulfonyl)piperazin-1-yl)ethyl)pyridin-3-yl)-6-methyl-1,3,5-triazin-2-amine]	
> 10	1.58	COc1ccc(Nc2ncc(CN3CCN(S(C)(=O)=O)CC3)cc2-c2ncnc(C)n2)cn1 [Example 34, N-(6-methoxypyridin-3-yl)-3-(4-methyl-1,3,5-triazin-2-yl)-5-((4-(methylsulfonyl)piperazin-1-yl)methyl)pyridin-2-amine]	
1.52	0.163	Cc1nc(N)nc(-c2cc(CN3CCN(S(C)(=O)=O)CC3)cnc2Nc2cn[nH]c2)n1 [Example 243, 4-(2-(1H-Pyrazol-4-Ylamino)-5-((4-(Methylsulfonyl)Piperazin-1-yl)Methyl)Pyridin-3-yl)-6-Methyl-1,3,5-Triazin-2-Amine]	
1.17	0.252	COc1ccc(Nc2ccncc2-c2nc(C)nc3[nH]cnc23)cn1 [Example 111, 6-methoxy-N-(3-(2-methyl-9H-purin-6-yl)pyridin-4-yl)pyridin-3-amine]	
0.145	0.017	Cc1nc(N)nc(-c2cc(CN3CCN(S(C)(=O)=O)CC3)cnc2Nc2cncnc2)n1 [Example 38, 4-Methyl-6-(5-((4-(Methylsulfonyl)Piperazin-1-yl)Methyl)-2-(Pyrimidin-5-Ylamino)Pyridin-3-yl)-1,3,5-Triazin-2-Amine]	
0.037	0.004	COc1ncc(Nc2nc(-c3cccnc3)ccc2-c2nc(C)nc(N)n2)cc1F [Example 255, 5-(4-Amino-6-Methyl-1,3,5-Triazin-2-yl)-N-(5-Fluoro-6-Methoxypyridin-3-yl)-2,3′-Bipyridin-6-Amine]	
0.111	0.011	COc1ccc(Nc2ncc(C(C)N3CCN(S(C)(=O)=O)CC3)nc2-c2cc(N)nc(C)n2)cn1 (stereo not drawn) [Example 286, 6-(3-(6-Methoxypyridin-3-Ylamino)-6-(1-(4-(Methylsulfonyl)Piperazin-1-yl)Ethyl)Pyrazin-2-yl)-2-Methylpyrimidin-4-Amine]	
0.09	0.012	COc1ncc(Nc2ncc(C(C)N3CCN(C(=O)N(C)C)CC3)cc2-c2nc(C)nc(N)n2)cc1F (stereo not drawn) [Example 294, 4-(1-(5-(4-Amino-6-Methyl-1,3,5-Triazin-2-yl)-6-(5-Fluoro-6-Methoxypyridin-3-Ylamino)Pyridin-3-yl)Ethyl)-N,N-Dimethylpiperazine-1-Carboxamide]	
0.353	0.06	COc1ncc(Nc2ncccc2-c2nc(C)nc(N)n2)cc1Cl [Example 173, 4-(2-(5-Chloro-6-Methoxypyridin-3-Ylamino)Pyridin-3-yl)-6-Methyl-1,3,5-Triazin-2-Amine]	
0.434	0.04	COc1ccc(Nc2ncc(N3CC[C@H](CO)C3)cc2-c2nc(C)nc3[nH]cnc23)cn1 [Example 204, ((3S)-1-(6-((6-Methoxy-3-Pyridinyl)Amino)-5-(2-Methyl-9H-Purin-6-yl)-3-Pyridinyl)-3-Pyrrolidinyl)Methanol]	
0.19	0.045	COc1ccc(Nc2nc(N(C)C)ncc2-c2nc(C)nc(N)n2)cn1 [Example 121, 5-(4-amino-6-methyl-1,3,5-triazin-2-yl)-N4-(6-methoxypyridin-3-yl)-N2,N2-dimethylpyrimidine-2,4-diamine]	
1.23	0.181	CCNc1cnc(Nc2ccc(OC)nc2)c(-c2nc(C)nc3[nH]cnc23)c1 [Example 94, N5-ethyl-N2-(6-methoxypyridin-3-yl)-3-(2-methyl-9H-purin-6-yl)pyridine-2,5-diamine]	
0.105	0.017	COc1ccc(Nc2ncc(-c3ccc(OC)nc3)cc2-c2nc(C)nc(N)n2)cn1 [Example 169, 5-(4-Amino-6-Methyl-1,3,5-Triazin-2-yl)-6′-Methoxy-N-(6-Methoxypyridin-3-yl)-3,3′-Bipyridin-6-Amine]	
> 10	2.08	Cc1nc(N)nc(-c2cc(Cl)cnc2NC2CCOCC2)n1 [Example 188, 4-(5-Chloro-2-(Tetrahydro-2H-Pyran-4-Ylamino)Pyridin-3-yl)-6-Methyl-1,3,5-Triazin-2-Amine]	
1.25	0.217	COc1ccc(Nc2ncc(CNC(C)(C)C)cc2-c2nc(C)nc3[nH]cnc23)cn1 [Example 134, 5-((tert-butylamino)methyl)-N-(6-methoxypyridin-3-yl)-3-(2-methyl-9H-purin-6-yl)pyridin-2-amine]	
2.47	0.068	COc1ccc(Nc2ncc(CN3CC4(C3)NC(=O)NC4=O)cc2-c2nc(C)nc(N)n2)cn1 [Example 230, 2-((5-(4-Amino-6-Methyl-1,3,5-Triazin-2-yl)-6-(6-Methoxypyridin-3-Ylamino)Pyridin-3-yl)Methyl)-2,5,7-Triazaspiro[3.4]Octane-6,8-Dione]	
0.033	0.045	Cc1nc(N)nc(-c2cc(C(C)N3CCOCC3)cnc2Nc2ccc3scnc3c2)n1 (stereo not drawn) [Example 288, N-(3-(4-Amino-6-Methyl-1,3,5-Triazin-2-yl)-5-(1-Morpholinoethyl)Pyridin-2-yl)Benzo[D]Thiazol-5-Amine]	
0.014	0.005	COc1ncc(Nc2ncc(C3CCOCC3)cc2-c2nc(C)nc(N)n2)cc1F [Example 344, 4-(2-(5-Fluoro-6-Methoxypyridin-3-Ylamino)-5-(Tetrahydro-2H-Pyran-4-yl)Pyridin-3-yl)-6-Methyl-1,3,5-Triazin-2-Amine]	
0.044	0.032	Cc1nc(N)nc(-c2cc(CN3CCN(S(C)(=O)=O)C[C@@H]3C)cnc2Nc2ccc(Cl)nc2)n1 [Example 318, (S)-4-(2-(6-Chloropyridin-3-Ylamino)-5-((2-Methyl-4-(Methylsulfonyl)Piperazin-1-yl)Methyl)Pyridin-3-yl)-6-Methyl-1,3,5-Triazin-2-Amine]	
0.063	0.018	COC(=O)N1CCN(Cc2cnc(Nc3ccc(OC)nc3)c(-c3nc(C)nc4[nH]cnc34)c2)CC1 [Example 86, Methyl 4-((6-(6-Methoxypyridin-3-Ylamino)-5-(2-Methyl-9H-Purin-6-yl)Pyridin-3-yl)Methyl)Piperazine-1-Carboxylate]	
0.739	0.103	CC(=O)Nc1ccc(Nc2ncc(CN3CCN(S(C)(=O)=O)CC3)cc2-c2nc(C)nc(N)n2)cc1 [Example 268, N-(4-(3-(4-Amino-6-Methyl-1,3,5-Triazin-2-yl)-5-((4-(Methylsulfonyl)Piperazin-1-yl)Methyl)Pyridin-2-Ylamino)Phenyl)Acetamide]	
0.079	0.033	COc1ccc(Nc2ncc(CN3CCOCC3=O)cc2-c2nc(C)nc(N)n2)cn1 [Example 154, 4-((5-(4-Amino-6-Methyl-1,3,5-Triazin-2-yl)-6-((6-Methoxy-3-Pyridinyl)Amino)-3-Pyridinyl)Methyl)-3-Morpholinone]	
0.486	0.369	CC(=O)Nc1ccc(Nc2ncc(CN3CCN(S(C)(=O)=O)CC3)cc2-c2nc(C)nc(N)n2)cc1F [Example 267, N-(4-(3-(4-Amino-6-Methyl-1,3,5-Triazin-2-yl)-5-((4-(Methylsulfonyl)Piperazin-1-yl)Methyl)Pyridin-2-Ylamino)-2-Fluorophenyl)Acetamide]	

SMILES	IC50 [1, 2] [µM]	Ki (PI3Kα) [µM]	IC50 ([1]; read-out: U87Cell IC50) [µM]
Cc1nc(N)nc(-c2cc([C@@H](C)N3CCN(S(C)(=O)=O)CC3)cnc2Nc2ccc3cccnc3c2)n1 [Example 310, (R)—N-(3-(4-amino-6-methyl-1,3,5-triazin-2-yl)-5-(1-(4-(methylsulfonyl)piperazin-1-yl)ethyl)pyridin-2-yl)quinolin-7-amine 2,2,2-trifluoroacetate]		0.036	0.065
